Earlier results, collected in patent US20050226899A1, “Cosmetic mask composition” (priority 2004, published 2005).

System: skin
Details: lotion, up to 5% by weight retinoic acid

CC1=C(/C=C/C(C)=C/C=C/C(C)=C/C(=O)O)C(C)(C)CCC1 [retinoic acid]
irritative phenomena: some treatments had to be interrupted due to the onset of significant irritative phenomena
